# Data reported in patent publication US11261190B2, “Dihydropyrimidine compounds and uses thereof in medicine” (SUNSHINE LAKE PHARMA CO., LTD., priority 2017, dated 2022).
# Columns and labels:
# HBV = assay: Anti HBV activity in vitro, viral DNA from HepG2.2.15 cells quantified by qPCR; type: cell-based; settings: Hepatitis B virus, qPCR of viral DNA in supernatant, read-out: EC50 against HBV replication
# Method: Test 1: Test Method of EC50 of Anti HBV
# HBV Cell Line and Culture Conditions
# HepG2.2.15 (SELLS, PNAS, 1987 and SELLS, JV, 1988) chromosomes have an integrated complete HBV genome, and stably express viral RNA and viral protein. HepG2.2.15 cells can secrete mature HBV particles, HBsAg and HBeAg to medium. HepG2.2.15 cells were cultured in DMEM containing 10% fetal bovine serum, 100 U/mL penicillin, 100 U/mL streptomycin, 1% non essential amino acid, 1 mM sodium pyruvate and 300 µg/mL G418.
# Viral particles DNA secreted from HepG2.2.15 cells can be quantified by qPCR, and the effect of the compound on viral replication can be detected.
# Test of Anti HBV Activity In Vitro
# 8000 HepG 2.2.15 cells per well were seeded into a 96-well plate, the plate was cultured at 37° C. and 5% CO2 for 3 days till the cells grew to full wells. Old liquid medium can be removed and replaced with new medium (200 μL) on day 0.
# Formulating the compound and treating the cells in the experiment of anti virus: the compound was dissolved in DMSO to a concentration of 30 mM, and then the compound solution was diluted with DMSO to a concentration of […], and then eight dilutions at 4 fold were performed, the highest concentration is 800 μM. The serial diluted compound was added to the above plate at 1 μL per well, the highest final concentration in the experiment is 4 μM (200 fold dilution). TDF (tenofovir dipiroxil fumarate, Selleck, Cat S1400) has a highest concentration of 4 μM as a positive control. 1 μL of DMSO was added in to the positive control well at a final concentration of 0.5%, TDF was added in to the positive control well at a final concentration of 1 μM.
# Detection of Viral Genomic DNA by qPCR
# Primer: HBV-For-202, […]; HBV-Rev-315, […]. Copies of virus can be calculated using a standard curve plotted by using plasmid containing HBV genome and using SYBR Premix Ex Taq II Takara DRR081S kit and 1 μL cell culture supernatant as a template. EC50 values of the compound on viral replication were calculated by a four parametric nonlinear regression model using Graphpad Prism 5 software to manage concentration—viral copy number.
# [1] = Cytotoxicity in HepG2.2.15 cells (CellTiter Glo); type: cell-based; settings: human, highest concentration 150 μM
# Method: Test 2: Cytotoxicity and Selectivity Index
# Methods of Testing Cytotoxicity and Selectivity Index
# The serial diluted compound was added to a 384 wells plate at 50 μL HepG2.2.15 cell per well (3000 cells per well), the highest final concentration in the experiment is 150 μM (200 fold dilution). The plate was cultured at 37° C. in an incubator with C02 for 4 days, and cytotoxicity of the compound was detected using CellTiter Glo agent.
# The cytotoxicity of the compound was calculated using the following formulate, cytotoxicity (%)=100−(detection value/mean of DMSO control wells values×100). CC50 values were calculated by a four parametric nonlinear regression model using Graphpad Prism 5 software to manage concentration−cytotoxicity (%). […]
# PK test on SD rats = type: in vivo; settings: for AUC(0-inf) / AUC(0-t) / Tmax: male, rat, plasma
# Method: The PK test method of the compound in vivo of SD rats (purchased from Hunan slack Jing Da laboratory animal Co., Ltd, weight: […] male, ages of 2-3 months, 3 per oral group, 3 per intravenous injection group):
# The Rats were administered intragastrically with the test compound at doses of 2.5 mg/kg or 5 mg/kg or administered intravenously with the test compound at doses of 1 mg/kg.
# Blood samples were taken at 0.083, 0.25, 0.5, 1, 2, 5, 7 and 24 hours from vein after the administration, and collected in anticoagulation tube with EDTA-K2. The test compounds were extracted from plasma samples by liquid-liquid extraction. Then quantitative analysis was performed on a triple-quadrupole tandem mass spectrometer using multiple reaction monitoring (MRM). Pharmacokinetic parameters were calculated using a noncompartmental method by WinNonLin 6.3 software.
SMILES,EC50 (HBV),CC50 at 4 days [1],"AUC(0-inf) (PK test on SD rats; iv, 1 mg/kg)","AUC(0-t) (PK test on SD rats; iv, 1 mg/kg)","Tmax (PK test on SD rats; iv, 1 mg/kg)","AUC(0-inf) (PK test on SD rats; po, 5 mg/kg)","AUC(0-t) (PK test on SD rats; po, 5 mg/kg)","Tmax (PK test on SD rats; po, 5 mg/kg)","F (PK test on SD rats; po, 5 mg/kg)"
"COC(=O)C1=C(CN2CCN3C(=O)N(c4ccc(CCC(=O)O)cc4)C[C@@H]3C2)NC(c2nccs2)=N[C@H]1c1ccc(F)cc1Cl [Example 13, 3-(4-((S)-7-(((R)-6-(2-chloro-4-fluorophenyl)-5-(methoxycarbonyl)-2-(thiazol-2-yl)-3,6-dihydropyrimidin-4-yl)methyl)-3-oxohexahydroimidazo[1,5-a]pyrazin-2(3H)-yl)phenyl)propionic Acid]",4 nM,> 150000 nM,1320 ng·h/mL,1320 ng·h/mL,4.98 min,3080 ng·h/mL,3050 ng·h/mL,30 min,31.2%
"COC(=O)C1=C(CN2CCN3C(=O)N(c4ccc(CC(=O)O)cc4)C[C@@H]3C2)NC(c2nccs2)=N[C@H]1c1ccc(F)cc1Cl [Example 14, 2-(4-((S)-7-(((R)-6-(2-chloro-4-fluorophenyl)-5-(methoxycarbonyl)-2-(thiazol-2-yl)-3,6-dihydropyrimidin-4-yl)methyl)-3-oxohexahydroimidazo[1,5-a]pyrazin-2(3H)-yl)phenyl)acetic Acid]",7 nM,> 150000 nM,684 ng·h/mL,680 ng·h/mL,4.98 min,2250 ng·h/mL,2250 ng·h/mL,30 min,44%
"COC(=O)C1=C(CN2CCN3C(=O)N(c4ccc(CC(C)(C)C(=O)O)cc4)C[C@@H]3C2)NC(c2nccs2)=N[C@H]1c1ccc(F)cc1Cl [Example 17, 3-(4-((S)-7-(((R)-6-(2-chloro-4-fluorophenyl)-5-(methoxycarbonyl)-2-(thiazol-2-yl)-3,6-dihydropyrimidin-4-yl)methyl)-3-oxohexahydroimidazo[1,5-a]pyrazin-2(3H)-yl)phenyl)-2,2-dimethylpropionic Acid]",4 nM,> 150000 nM,979 ng·h/mL,977 ng·h/mL,4.98 min,5580 ng·h/mL,4710 ng·h/mL,60 min,114.1%
"COCC(C)(C)NC(=O)CCc1ccc(N2C[C@@H]3CN(CC4=C(C(=O)OC)[C@H](c5ccc(F)cc5Cl)N=C(c5nccs5)N4)CCN3C2=O)cc1 [Example 44, (R)-methyl 4-(2-chloro-4-fluorophenyl)-6-(((S)-2-(4-(3-((1-methoxy-2-methylpropan-2-yl)amino)-3-oxopropyl)phenyl)-3-oxohexahydroimidazo[1,5-a]pyrazin-7(1H)-yl)methyl)-2-(thiazol-2-yl)-1,4-dihydropyrimidine-5-carboxylate]",10 nM,> 150000 nM,–,–,–,–,–,–,–
"COC(=O)C1=C(CN2CCN3C(=O)N(c4ccc(CCC(=O)O)cc4)C[C@@H]3C2)NC(c2nccn2C)=NC1c1ccc(F)cc1Cl (stereo partly drawn) [Example 45, 3-(4-((8aS)-7-((-6-(2-chloro-4-fluorophenyl)-5-(methoxycarbonyl)-2-(1-methyl-1H-imidazol-2-yl)-3,6-dihydropyrimidin-4-yl)methyl)-3-oxohexahydroimidazo[1,5-a]pyrazin-2(3H)-yl)phenyl)propionic Acid]",8 nM,> 150000 nM,–,–,–,–,–,–,–
"COC(=O)C1=C(CN2CCN3C(=O)N(c4ccc(C(NC(=O)OC(C)(C)C)C(=O)O)cc4)C[C@@H]3C2)NC(c2nccs2)=N[C@H]1c1ccc(F)cc1Cl (stereo partly drawn) [Example 46, 2-((tert-butoxycarbonyl)amino)-2-(4-((S)-7-(((R)-6-(2-chloro-4-fluorophenyl)-5-(methoxycarbonyl)-2-(thiazol-2-yl)-3,6-dihydropyrimidin-4-yl)methyl)-3-oxohexahydroimidazo[1,5-a]pyrazin-2(3H)-yl)phenyl)acetic Acid]",22 nM,> 150000 nM,–,–,–,–,–,–,–
"COC(=O)C1=C(CN2CCN3C(=O)N(c4ccc(/C=C/C(=O)O)cc4)C[C@@H]3C2)NC(c2nccs2)=N[C@H]1c1ccc(F)cc1Cl [Example 47, (E)-3-(4-((S)-7-(((R)-6-(2-chloro-4-fluorophenyl)-5-(methoxycarbonyl)-2-(thiazol-2-yl)-3,6-dihydropyrimidin-4-yl)methyl)-3-oxohexahydroimidazo[1,5-a]pyrazin-2(3H)-yl)phenyl)acrylic Acid]",3 nM,> 150000 nM,–,–,–,–,–,–,–
"COC(=O)C1=C(CN2CCN3C(=O)N(c4ccc(CCC(N)=O)cc4)C[C@@H]3C2)NC(c2nccs2)=N[C@H]1c1ccc(F)cc1Cl [Example 48, (R)-methyl 6-(((S)-2-(4-(3-amino-3-oxopropyl)phenyl)-3-oxohexahydroimidazo[1,5-a]pyrazin-7(1H)-yl)methyl)-4-(2-chloro-4-fluorophenyl)-2-(thiazol-2-yl)-1,4-dihydropyrimidine-5-carboxylate]",10 nM,> 150000 nM,–,–,–,–,–,–,–
"COC(=O)C1=C(CN2CCN3C(=O)N(c4ccc(CCCNS(C)(=O)=O)cc4)C[C@@H]3C2)NC(c2nccs2)=N[C@H]1c1ccc(F)cc1Cl [Example 49, (R)-methyl 4-(2-chloro-4-fluorophenyl)-6-(((S)-2-(4-(3-(methylsulfonylamino)propyl)phenyl)-3-oxohexahydroimidazo[1,5-a]pyrazin-7(1H)-yl)methyl)-2-(thiazol-2-yl)-1,4-dihydropyrimidin-5-carboxylate]",12 nM,> 150000 nM,–,–,–,–,–,–,–
COC[C@@H]1[C@H]2CN(c3ccc(CCC(=O)O)cc3)C(=O)N2CCN1CC1=C(C(=O)OC)[C@H](c2ccc(F)cc2Cl)N=C(c2nccs2)N1 [Example 51B],9 nM,> 150000 nM,–,–,–,–,–,–,–
"COC(=O)C1=C(CN2CCN3C(=O)N(c4nc(/C=C/C(=O)O)cs4)C[C@@H]3C2)NC(c2nccs2)=N[C@H]1c1ccc(F)cc1Cl [Example 52, (E)-3-(2-((S)-7-(((R)-6-(2-chloro-4-fluorophenyl)-5-(methoxycarbonyl)-2-(thiazol-2-yl)-3,6-dihydropyrimidin-4-yl)methyl)-3-oxohexahydroimidazo[1,5-a]pyrazin-2(3H)-yl)-thiazol-4-yl)acrylic Acid]",13 nM,> 150000 nM,–,–,–,–,–,–,–
"COC(=O)C1=C(CN2CCN3C(=O)N(c4ccc(/C=C(\C)C(=O)O)cc4)C[C@@H]3C2)NC(c2nccs2)=N[C@H]1c1ccc(F)cc1Cl [Example 53, (E)-3-(4-((S)-7-(((R)-6-(2-chloro-4-fluorophenyl)-5-(methoxycarbonyl)-2-(thiazol-2-yl)-3,6-dihydropyrimidin-4-yl)methyl)-3-oxohexahydroimidazo[1,5-a]pyrazin-2(3H)-yl)phenyl)-2-methylacrylic Acid]",14 nM,> 150000 nM,–,–,–,–,–,–,–
"COC(=O)C1=C(CN2CCN3C(=O)N(c4ccc(/C(C)=C/C(=O)O)cc4)C[C@@H]3C2)NC(c2nccs2)=N[C@H]1c1ccc(F)cc1Cl [Example 54, (E)-3-(4-((S)-7-(((R)-6-(2-chloro-4-fluorophenyl)-5-(methoxycarbonyl)-2-(thiazol-2-yl)-3,6-dihydropyrimidin-4-yl)methyl)-3-oxohexahydroimidazo[1,5-a]pyrazin-2(3H)-yl)phenyl)-2-butenoic Acid]",11 nM,> 150000 nM,–,–,–,–,–,–,–
COC(=O)C1=C(CN2CCN3C(=O)N(c4ccc(CCC(=O)O)cc4)C[C@@H]3[C@H]2CO)NC(c2nccs2)=N[C@H]1c1ccc(F)cc1Cl [Example 59B],15 nM,> 150000 nM,–,–,–,–,–,–,–
